From patent publication US7026318B2 (Shionogi & Co., Ltd., priority 2000, dated 2006)

What was measured:
human type V sPLA2 = biological target: T1, human type V sPLA2 (Homo sapiens, UniProt P39877); assay: Inhibition test of human secretory phospholipase A2, chromogenic assay, type V enzyme; assay type: biochemical; settings: human sPLA2 type V (CHO supernatant), chromogenic assay, 45 min; read-out: IC50 type V
T1 construct: made in house; unpurified culture supernatant
T1 sequence (P39877 21-138): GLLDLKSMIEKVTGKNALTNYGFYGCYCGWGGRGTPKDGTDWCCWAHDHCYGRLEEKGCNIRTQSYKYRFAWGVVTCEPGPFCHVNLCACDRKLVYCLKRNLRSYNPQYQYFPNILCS

human type X sPLA2 [1] = biological target: T2, human type X sPLA2 (Homo sapiens, UniProt O15496); assay: Type X sPLA2-induced PGE2 production in human colon carcinoma HT-29 cells; assay type: cell-based; settings: compound 10 μM; TNF-α-treated HT-29 cells; 100 nM human type X sPLA2, 3 h; percentage of PGE2 produced by type X sPLA2 (no treatment group = 100)
T2 construct: made in house; unpurified culture supernatant
T2 sequence (O15496 43-165): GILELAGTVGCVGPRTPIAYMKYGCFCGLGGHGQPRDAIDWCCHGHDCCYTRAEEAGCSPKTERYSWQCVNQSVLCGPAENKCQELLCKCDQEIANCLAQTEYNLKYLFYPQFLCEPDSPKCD
Protocol: Examination 16: Effects of sPLA2 Inhibitors on Type X sPLA2-Induced PGE2 Production in Human Colon Carcinoma Cell Lines, HT-29 Cells.
HT-29 cells were seeded into 24-well plates at a density of 2.5×10^5 cells/well. After incubation for 24 h, the cells were washed three times with PBS and incubated with 30 ng/mL of recombinant human tumor necrosis factor-α (R&D Systems, Inc.) in DMEM medium supplemented with 10% fetal bovine serum for 18 h at 37° C. After washing with PBS, the cells were preincubated with or without test compounds (at a final concentration of 10 μM; dissolved in DMSO) in Hanks' buffered saline containing 0.1% BSA for 10 min at 37° C., and then stimulated with 100 nM purified human type X sPLA2 enzyme in a final volume of 0.5 mL. After incubation for 3 h at 37° C, the culture supernatant was collected following the centrifugation for the removal of floating cells, and its PGE2 content was quantified with an enzyme-immunoassay kit (Cayman Chemicals Co.). From each data, the value in the absence of type X sPLA2 was subtracted. The amount of PGE2 in the presence of each test compound was expressed as the percentage of the PGE2 content produced by the addition of type X sPLA2 enzyme.

[2] = biological target: human type I enzyme (sPLA2) (Homo sapiens, UniProt P04054); assay: Inhibition test of human secretory phospholipase A2, chromogenic assay, type I enzyme; assay type: biochemical; settings: recombinant human sPLA2 type I, chromogenic assay, 30 min; read-out: IC50 type I
human type X sPLA2 [3] = biological target: T2, human type X sPLA2; assay: Inhibition test of human secretory phospholipase A2, chromogenic assay, type X enzyme; assay type: biochemical
human type X sPLA2 [4] = biological target: T2, human type X sPLA2; assay: Type X sPLA2-induced fatty acid release from isolated human lipoproteins (LDL); assay type: biochemical; settings: compound 10 μM; human LDL 0.5 mg/mL; 10 nmol/L human type X sPLA2, 4 hr at 37° C.; read-out: % of Inhibition (10 μM)
Protocol: Examination 17: Effects of sPLA2 Inhibitors on Type X sPLA2-Induced Fatty Acid Release From Isolated Human Lipoproteins.
LDL was isolated from human plasma by sequential ultracentrifugation method (Havel et al. J. Clin. Invest. 34,1345–1353 (1955)). LDL (0.5 mg/mL) was incubated with 10 nmol/L of human type X sPLA2 in the assay mixture containing 12.5 mmol/L Tris-HCl buffer (pH 8.0), 125 mg/L bovine serum albumin and 1 mmol/L calcium chloride for 4 hr at 37° C. Fatty acids released from lipoprotein were extracted by Dole's method (Dole et al. J. Biol. Chem. 235, 2595–2599 (1960)), labeled with 9-anthryldiazomethane according to a known method (Hanasaki et al., J. Biol. Chem. 274, 34203–34211 (1999)) and measured by detecting the fluorescence of labeled fatty acids using reverse-phase high performance chromatography (LiChroCART 125-4 Superspher 100 RP-18 column (Merck). For the inhibition assay of drugs, sPLA2 inhibitors (final concentration of 10 μM) were added at almost the same time as the addition of sPLA2 into the reaction solution. The results are presented in Table 10.

[5] = biological target: T3, human type II enzyme (sPLA2) (Homo sapiens, UniProt P14555); assay: Inhibition test of human secretory phospholipase A2, chromogenic assay, type II enzyme; assay type: biochemical; settings: human sPLA2 type II, chromogenic assay, 30 min; read-out: IC50 type II
T3 sequence (P14555 21-144): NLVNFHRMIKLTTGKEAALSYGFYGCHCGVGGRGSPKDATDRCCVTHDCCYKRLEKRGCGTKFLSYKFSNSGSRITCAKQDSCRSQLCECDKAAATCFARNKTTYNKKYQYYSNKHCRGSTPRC

human type X sPLA2 [6] = biological target: T2, human type X sPLA2; assay: Human type X sPLA2-induced oleic acid release in human colon carcinoma HT-29 cells; assay type: cell-based; settings: compound 10 μM, 100 nM human type X sPLA2, 30 min, percentage of the increase by type X sPLA2 (no treatment group = 100)
Protocol: Examination 15: Effects of sPLA2 Inhibitors on Human Type X sPLA2-Induced Oleic Acid Release in Human Colon Calcinoma Cell Lines, HT-29 Cells.
Human colon calcinoma cell lines, HT-29 cells (obtained from ATCC) were cultured in DMEM supplemented with 10% fetal calf serum. The cells were washed by phosphate-buffered saline (PBS), detached from culture plates by treatment with trypsin/EDTA solution and further washed by PBS. The resulting cells were resuspended in Hanks' buffered saline containing 0.1% bovine serum albumin (BSA) at a density of 12.5×10^6 cells/mL. Aliquots of the cell suspension (0.4 ml) were transferred into polypropylene tubes and test compounds dissolved in DMSO solution (final concentration; 10 μM) were added. After preincubation for 10 min at 37° C., 100 nM purified human type X sPLA2 enzyme (Hanasaki et al J. Biol. Chem. (1999) 274, 34203–34211) was added (final volume of 0.5 mL). After incubation for 30 min at 37° C., the reaction was stopped by the addition of 2 ml Dole's reagent (heptane:2-propanol:1M H2SO4=10:40:1, v/v/v).

Sequence of human type I enzyme (sPLA2) (P04054 23-148): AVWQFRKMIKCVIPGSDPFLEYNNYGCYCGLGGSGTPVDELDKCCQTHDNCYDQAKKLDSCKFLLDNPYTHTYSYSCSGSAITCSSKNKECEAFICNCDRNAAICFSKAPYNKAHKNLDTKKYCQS

SMILES: CC(C)Cc1c(C(=O)C(N)=O)c2c(OCC(=O)O)cccc2n1Cc1ccccc1 [Compound I-10]
- IC50 (human type V sPLA2): > 1000 nM
- PGE2 production (human type X sPLA2 [1]): −12.7 ± 7.9 %
- IC50 [2]: > 700 nM
- IC50 (human type X sPLA2 [3]): 13 nM
- inhibition at 10 µM (human type X sPLA2 [4]): 91.3%
- IC50 [5]: > 1000 nM
- Oleic acid release (human type X sPLA2 [6]): −0.2 ± 5.7 %
